Assay results published in article PMC6934184, “Selective DNA-PKcs inhibition extends the therapeutic index of localized radiotherapy and chemotherapy” (The Journal of Clinical Investigation, 2019).

Target: T1, MAP4K3 (GLK) (Homo sapiens, UniProt Q8IVH8)
T1 construct: purchased Thermo Fisher Scientific (Life Technologies) SelectScreen
Assay: SelectScreen LanthaScreen
Type: binding
Details: 1 µM
How it was run: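 NU5455 was profiled across the SelectScreen Broad panel of kinase activity and binding assays. Z'LYTE reactions such as CSF1R ran at apparent Km ATP, while the Adapta CAMK1 assay used ATP listed as 10. Values are given as percent.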

T1 sequence (Q8IVH8 whole entry): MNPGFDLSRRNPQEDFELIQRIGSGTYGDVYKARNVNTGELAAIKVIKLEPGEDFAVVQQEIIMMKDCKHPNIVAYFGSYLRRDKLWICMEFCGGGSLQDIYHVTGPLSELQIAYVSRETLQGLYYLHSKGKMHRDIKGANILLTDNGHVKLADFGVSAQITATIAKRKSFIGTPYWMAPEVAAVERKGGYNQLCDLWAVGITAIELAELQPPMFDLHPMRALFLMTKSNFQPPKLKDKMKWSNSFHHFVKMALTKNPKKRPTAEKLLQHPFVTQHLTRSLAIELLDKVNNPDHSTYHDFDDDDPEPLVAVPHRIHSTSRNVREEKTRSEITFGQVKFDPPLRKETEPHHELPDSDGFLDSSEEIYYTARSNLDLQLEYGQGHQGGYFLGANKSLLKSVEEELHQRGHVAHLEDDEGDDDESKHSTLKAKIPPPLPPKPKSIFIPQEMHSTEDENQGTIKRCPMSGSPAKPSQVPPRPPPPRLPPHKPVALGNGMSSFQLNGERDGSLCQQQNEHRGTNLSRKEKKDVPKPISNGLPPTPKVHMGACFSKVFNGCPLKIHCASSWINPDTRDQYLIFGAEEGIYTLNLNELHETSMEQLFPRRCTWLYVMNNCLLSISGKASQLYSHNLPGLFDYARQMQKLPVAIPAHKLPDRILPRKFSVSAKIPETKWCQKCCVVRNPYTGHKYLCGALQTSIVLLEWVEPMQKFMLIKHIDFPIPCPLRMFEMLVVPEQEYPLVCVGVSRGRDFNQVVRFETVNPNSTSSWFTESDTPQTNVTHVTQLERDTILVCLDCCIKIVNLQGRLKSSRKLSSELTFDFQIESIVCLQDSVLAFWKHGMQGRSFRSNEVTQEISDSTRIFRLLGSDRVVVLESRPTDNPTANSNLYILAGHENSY

CN(C(=O)CN1CCOCC1)c1ccc2sc3c(-c4cccc5c(=O)cc(N6CC7CCC(C6)O7)oc45)cccc3c2c1 [NU5455]
% displacement: -2.1%
